Source: patent US10316056B2, “Chemical compounds and use thereof for improving muscular quality” (BIOPHYTIS, priority 2014, dated 2019)

How the values were obtained:
[1] = rat, in vivo, po; for Cexp (coefficient of exposure): male, Wistar
Description: (§3) The pharmacokinetics of the compounds were evaluated orally using male Wistar rats (Charles River). […] The novel compounds according to the invention were administered at a dose of 10 mg/kg of body weight in the form of a mixture of 4 to 6 products. After administration, the blood was sampled from the tail at t=0.25 h, 0.5 h, 1 h, 3 h, 6 h and 8 h. The blood samples were centrifuged and the plasmas removed.

[2] = tested on: myostatin gene expression in C2C12 cells; assay: Inhibition of myostatin expression in C2C12 cells (qPCR); type: cell-based; conditions: Mus musculus, percentage myostatin gene expression in cells in contact with the compounds related to control cells, C2C12, 6 h
Summary of the method: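 C2C12 myoblasts differentiated to myotubes for 5 days in 2% serum, then treated 6 h with compounds in serum-free, low-glucose (1 g/l) DMEM; IGF-1 100 ng/ml as reference. Myostatin mRNA quantified by RT-qPCR, expressed relative to untreated control as R=2^-ΔΔCt.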

[3] = tested on: Myf5 gene transcripts; assay: Mice subjected to a high-fat diet: Myf5 transcripts; type: in vivo, C57BL/6J mice; conditions: 5 mg/kg orally; high-fat diet for 6 weeks
Description: (§1) The 20E as comparative compound and the compounds according to the invention (Nos. 51 and 93) were administered orally, at a dose of 5 mg/kg of body weight, to 12-week-old C57BL/6J mice subjected to a high-fat diet for 6 weeks. The effect of the compounds on the weight and the amount of proteins of the Soleus muscle and also the transcripts of genes involved in myogenesis were evaluated.
Myogenesis, which is the process for forming muscle tissues, is controlled by several myogenic transcription factors which act as end effectors of the signaling cascade and produce transcripts involved in the various stages of development. The roles of the transcription factors have been described in various journals (Sabourin and Rudnicki 2000 and Le Grand and Rudnicki 2007). The Pax7 protein (Paired-box protein 7) maintains a population of satellite cells in quiescence and, with Myf5 (Myogenic factor 5), plays a role in the expansion of activated myoblasts. The MyoD protein (Myoblast Determination protein) appears to determine the differentiation potential of activated myoblasts, and cooperates with myogenin and the MEF2 (Myocyte Enhancer Factor 2) protein to control and bring about differentiation. Finally, MRF4 (Muscle-specific Regulatory Factor 4) is required for hypertrophy, even though it probably plays other roles. […]
The relative differences in gene expression between treatments are expressed as increase or decrease in the number of cycle times [Ct] compared with the control group, the [Ct] value of each gene having been standardized with the beta-actin gene.
(§2) The in vivo study is carried out by evaluating the effect of 20E as comparative compound and of the molecules according to the invention (Nos. 51 and 93) administered orally, at a dose of 5 mg/kg of body weight, to C57BL/6 mice subjected to a high-fat diet for 6 weeks. The effect of the molecules on the weight and the amount of proteins of the Soleus muscle and also the transcripts of genes involved in myogenesis were evaluated.

[4] = in vivo; conditions: male, Wistar, rat, po, 10 mg/kg
Description: as §3

[5] = tested on: Soleus muscle of C57BL/6 mice subjected to a high-fat diet; assay: Mice subjected to a high-fat diet: weight and amount of proteins of the Soleus muscle; type: in vivo, C57BL/6J mice; conditions: 5 mg/kg orally; high-fat diet for 6 weeks; compared with the control group; FIG. 3B
Description: as §1
The amount of proteins is determined by first lysing the muscles sampled in a 0.1N NaOH solution with the FastPrep technique. The proteins are quantified by means of a colorimetric assay derived from the Lowry method.
as §2

Structure (SMILES)	Cexp (coefficient of exposure) [1]	plasma exposure compared with 20E [1]	mrna remaining at 10 µM [2]	transcripts of the Myf5 gene [3]	AUC [4]	Cmax [4]	Tmax [4]	amount of proteins of the Soleus muscle [5]
CCC(CC)C(=O)N(CCOC)C(C)[C@H]1CC[C@@]2(O)C3=CC(=O)[C@@H]4C[C@@H](O)[C@@H](O)C[C@]4(C)C3CC[C@]12C (stereo partly drawn) [Compound 51, 2-ethyl-N-(2-methoxyethyl)-N-[1-[(2S,3R,5R,10R,13R,14S,17S)-2,3,14-trihydroxy-10,13-dimethyl-6-oxo-2,3,4,5,9,11,12,15,16,17-decahydro-1H-cyclopenta[a]phenanthren-17-yl]ethyl]butanamide]	3.6	better plasma exposure	< 70%	increase	273 ng·h/mL	174 ng/mL	15 min	
CCSCC(=O)[C@H]1CC[C@@]2(O)C3=CC(=O)[C@@H]4C[C@@H](O)[C@@H](O)C[C@]4(C)C3CC[C@]12C (stereo partly drawn) [Compound 93, (2S,3R,5R,10R,13R,14S,17S)-17-(2-ethylsulfanylacetyl)-2,3,14-trihydroxy-10,13-dimethyl-2,3,4,5,9,11,12,15,16,17-decahydro-1H-cyclopenta[a]phenanthren-6-one]	10.3	better plasma exposure	< 70%	increase	785 ng·h/mL	230 ng/mL	30 min	significant increase
